{"source": "patent US20060276498A1", "about": "(Wyeth, priority 2005, published 2006)", "note": "pIC50: −log10 of the molar value."}
{"target": "T1, human Cot/Tpl2 kinase (Homo sapiens, UniProt P41279)", "T1 construct": "human Cot/Tpl2 kinase construct encoding residues 30-398; 6His (N); made in house; host or cells: Sf9 insect cells (baculovirus system, BD Biosciences)", "T1 sequence (P41279 30-398)": "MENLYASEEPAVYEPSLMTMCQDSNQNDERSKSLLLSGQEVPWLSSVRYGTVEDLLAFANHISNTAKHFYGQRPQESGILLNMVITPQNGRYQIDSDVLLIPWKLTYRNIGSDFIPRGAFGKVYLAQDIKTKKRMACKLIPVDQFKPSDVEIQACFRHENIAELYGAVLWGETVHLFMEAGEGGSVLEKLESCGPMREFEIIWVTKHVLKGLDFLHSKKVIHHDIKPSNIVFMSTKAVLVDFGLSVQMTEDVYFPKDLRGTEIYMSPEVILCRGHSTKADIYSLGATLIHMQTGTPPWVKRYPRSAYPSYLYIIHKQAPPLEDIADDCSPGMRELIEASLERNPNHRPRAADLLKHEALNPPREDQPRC", "test": "Tpl2/Cot kinase assay, GST-MEK1 phosphorylation detected by ELISA (DELFIA Eu)", "type": "biochemical", "details": "Table 1; 0.4 nM Tpl2, 35 nM GST-MEK1, 50 uM ATP, 1 h at 30° C.", "method": "(§1) Sf9 cells expressing the kinase were lysed in 50 mM NaPhosphate pH=8; 300 mM NaCl; 5 mM imidazole; 0.1 mM EGTA; 25 mM beta-glycerophosphate; 1% TX-100, 1% glycerol; 6 mM beta-mercaptoethanol and protease inhibitors. The lysate was clarified by centrifugation and was loaded onto a Ni-Sepharose column. The column was washed with 50 mM NaPhosphate pH=8; 300 mM NaCl; 15 mM imidazole; 1% glycerol; and 6 mM beta-mercaptoethanol. His-Tpl2 was eluted with 50 mM NaPhosphate pH=8; 300 mM NaCl; 250 mM imidazole; 1% glycerol; and 6 mM beta-mercaptoethanol. The eluted protein was further purified by size exclusion chromatography. Fractions corresponding to monomeric Tpl2 were then used in the assay.\n(§2) Tpl2/Cot activity was directly assayed using GST-MEK1 as a substrate. GST-MEK1 phosphorylation on serine residues 217 and 221 was detected by ELISA. 0.4 nM Tpl2 was incubated with 35 nM GST-MEK1 in a kinase reaction buffer containing 20 mM MOPS pH=7.2; 50 uM ATP; 20 mM MgCl2; 1 mM DTT; 25 mM β-glycerophosphate; 5 mM EGTA; and 1 mM sodium orthovanadate for 1 h at 30° C. The compounds of the inventions solubilized in 100% DMSO were pre-diluted in assay buffer so that the final concentration of DMSO in the reaction was 1%. The kinase reaction was carried out in 100 ul volume on 96 well plates. The kinase reaction was then stopped with the addition of 100 mM EDTA. […] After a 1 hour incubation at room temperature, the detection plate was washed 4 times with TBST (TBS+0.05% Tween 20) and then incubated for another hour at room temperature with anti phospho-MEK1 antibody (Cell Signaling) 1:1000 in 10 mM MOPS 7.5; 150 mM NaCl; 0.05% Tween 20; 0.1% Gelatin; 0.02% NaN3; and 1% BSA. The detection plate was washed again and incubated for 30 min with DELFIA Europium (Eu) labeled goat anti-rabbit IgG (Perkin-Elmer), 1:4000 in the same buffer used for the primary incubation. After a final wash, Eu detection solution was added to each well and the Eu signal was measured in a Wallac Victor^2 Multilabel Counter. IC50 calculations were preformed using the XLfit software package (IDBS, Guildford, UK)."}
{"smiles": "C[C@H](O)CNc1cc2c(Nc3ccc(F)c(Cl)c3)c(C#N)cnc2cn1", "note": "[Example 56, 4-[(3-chloro-4-fluorophenyl)amino]-6-{[(2S)-2-hydroxypropyl]amino}-1,7-naphthyridine-3-carbonitrile]", "pIC50": 5.44}
{"smiles": "C[C@H](Nc1cc2c(Nc3ccc(F)c(Cl)c3)c(C#N)cnc2cn1)c1ccccc1", "note": "[Example 57, 4-[(3-chloro-4-fluorophenyl)amino]-6-{[(1S)-1-phenylethyl]amino}-1,7-naphthyridine-3-carbonitrile]", "pIC50": 4.44}
{"smiles": "N#Cc1cnc2cnc(N[C@H](CN3CCOCC3)c3ccccc3)cc2c1Nc1ccc(F)c(Cl)c1", "note": "[Example 58, 4-[(3-chloro-4-fluorophenyl)amino]-6-{[(1S)-2-morpholin-4-yl-1-phenylethyl]amino}-1,7-naphthyridine-3-carbonitrile]", "pIC50": 5.43}
{"smiles": "C[C@@H](Nc1cc2c(Nc3ccc(F)c(Cl)c3)c(C#N)cnc2cn1)c1ccccc1", "note": "[Example 59, 4-[(3-chloro-4-fluorophenyl)amino]-6-{[(1R)-1-phenylethyl]amino}-1,7-naphthyridine-3-carbonitrile]", "pIC50": 7.92}
{"smiles": "N#Cc1cnc2cnc(NC(CN3CCOCC3)c3ccccc3)cc2c1Nc1ccc(F)c(Cl)c1", "note": "(stereo not shown) [Example 60, 4-[(3-chloro-4-fluorophenyl)amino]-6-[(2-morpholin-4-yl-1-phenylethyl)amino]-1,7-naphthyridine-3-carbonitrile]", "pIC50": 5.62}
{"smiles": "N#Cc1cnc2cnc(NCc3c(N)cccc3F)cc2c1Nc1ccc(F)c(Cl)c1", "note": "[Example 61, 6-[(2-amino-6-fluorobenzyl)amino]-4-[(3-chloro-4-fluorophenyl)amino]-1,7-naphthyridine-3-carbonitrile]", "pIC50": 4.98}
{"smiles": "N#Cc1cnc2cnc(NCc3cccnc3)cc2c1Nc1ccc(Cl)c(Cl)c1", "note": "[Example 63, 4-[(3,4-dichlorophenyl)amino]-6-[(pyridin-3-ylmethyl)amino]-1,7-naphthyridine-3-carbonitrile]", "pIC50": "< 4.40"}
{"smiles": "Cc1ccc(Nc2c(C#N)cnc3cnc(NCCN4CCOCC4)cc23)cc1Br", "note": "[Example 64, 4-[(3-bromo-4-methylphenyl)amino]-6-[(2-morpholin-4-ylethyl)amino]-1,7-naphthyridine-3-carbonitrile]", "pIC50": "< 4.40"}
{"smiles": "Cc1ccc(Nc2c(C#N)cnc3cnc(N[C@H](C)c4ccccc4)cc23)cc1Br", "note": "[Example 65]", "pIC50": 5.21}
{"smiles": "Cc1ccc(Nc2c(C#N)cnc3cnc(NCc4cccnc4)cc23)cc1Br", "note": "[Example 66, 4-[(3-bromo-4-methylphenyl)amino]-6-[(pyridine-3-ylmethyl)amino]-1,7-naphthyridine-3-carbonitrile]", "pIC50": "< 4.40"}
{"smiles": "N#Cc1cnc2cnc(NCCN3CCOCC3)cc2c1Nc1cc(Cl)cc(Cl)c1", "note": "[Example 67, 4-[(3,5-dichlorophenyl)amino]-6-[(2-morpholin-4-ylethyl)amino]-1,7-naphthyridine-3-carbonitrile]", "pIC50": 5.38}
{"smiles": "C[C@@H](Nc1cc2c(Nc3cc(Cl)cc(Cl)c3)c(C#N)cnc2cn1)c1ccccc1", "note": "[Example 68]", "pIC50": 6.03}
{"smiles": "N#Cc1cnc2cnc(NCc3cccnc3)cc2c1Nc1cc(Cl)cc(Cl)c1", "note": "[Example 69, 4-[(3,5-dichlorophenyl)amino]-6-[(pyridin-3-ylmethyl)amino]-1,7-naphthyridine-3-carbonitrile]", "pIC50": 5.39}
{"smiles": "N#Cc1cnc2cnc(N[C@@H]3CCCc4ccccc43)cc2c1Nc1ccc(F)c(Cl)c1", "note": "[Example 70]", "pIC50": 5.82}
{"smiles": "N#Cc1cnc2cnc(N[C@H]3CCCc4ccccc43)cc2c1Nc1ccc(F)c(Cl)c1", "note": "[Example 71]", "pIC50": 5.41}
{"smiles": "N#Cc1cnc2cnc(N[C@H]3CCc4ccccc43)cc2c1Nc1ccc(F)c(Cl)c1", "note": "[Example 72]", "pIC50": 5.82}
{"smiles": "N#Cc1cnc2cnc(N[C@@H]3CCc4ccccc43)cc2c1Nc1ccc(F)c(Cl)c1", "note": "[Example 73]", "pIC50": 6.37}
{"smiles": "CCN1CCC[C@H]1CNc1cc2c(Nc3ccc(F)c(Cl)c3)c(C#N)cnc2cn1", "note": "[Example 74]", "pIC50": 6.74}
{"smiles": "CCN1CCC[C@@H]1CNc1cc2c(Nc3ccc(F)c(Cl)c3)c(C#N)cnc2cn1", "note": "[Example 75]", "pIC50": 5.15}
{"smiles": "N#Cc1cnc2cnc(NCCN3CCOCC3)cc2c1Nc1cccc(I)c1", "note": "[Example 78, 4-(3-iodophenylamino)-6-(2-morpholinoethylamino)-1,7-naphthyridine-3-carbonitrile]", "pIC50": 5.15}
{"smiles": "CC#Cc1cccc(Nc2c(C#N)cnc3cnc(NCCN4CCOCC4)cc23)c1", "note": "[Example 79, 6-(2-morpholinoethylamino)-4-(3-(prop-1-ynyl)phenylamino)-1,7-naphthyridine-3-carbonitrile]", "pIC50": "< 5.00"}
{"smiles": "N#Cc1cnc2cnc(NCCN3CCOCC3)cc2c1Nc1cccc(-c2ccco2)c1", "note": "[Example 80, 4-(3-(furan-2-yl)phenylamino)-6-(2-morpholinoethylamino)-1,7-naphthyridine-3-carbonitrile]", "pIC50": "< 5.00"}
{"smiles": "N#Cc1cnc2cnc(NCCN3CCOCC3)cc2c1Nc1cccc([N+](=O)[O-])c1", "note": "[Example 81, 6-(2-morpholinoethylamino)-4-(3-nitrophenylamino)-1,7-naphthyridine-3-carbonitrile]", "pIC50": 6.57}
{"smiles": "N#Cc1cnc2cnc(NCCN3CCOCC3)cc2c1Nc1cccc(N)c1", "note": "[Example 82, 4-(3-aminophenylamino)-6-(2-morpholinoethylamino)-1,7-naphthyridine-3-carbonitrile]", "pIC50": "< 5.00"}
{"smiles": "COC(=O)c1cccc(Nc2c(C#N)cnc3cnc(NCCN4CCOCC4)cc23)c1", "note": "[Example 83, Methyl 3-(3-cyano-6-(2-morpholinoethylamino)-1,7-naphthyridin-4-ylamino)benzoate]", "pIC50": "< 5.00"}
{"smiles": "N#Cc1cnc2cnc(NCCN3CCOCC3)cc2c1Nc1cccc(C(=O)O)c1", "note": "[Example 84, 3-(3-cyano-6-(2-morpholinoethylamino)-1,7-naphthyridin-4-ylamino)benzoic acid]", "pIC50": "< 5.00"}
{"smiles": "CS(=O)(=O)Nc1cccc(Nc2c(C#N)cnc3cnc(NCCN4CCOCC4)cc23)c1", "note": "[Example 85, N-(3-(3-cyano-6-(2-morpholinoethylamino)-1,7-naphthyridin-4-ylamino)phenyl)methanesulfonamide]", "pIC50": "< 5.00"}
{"smiles": "N#Cc1cnc2cnc(NCCN3CCOCC3)cc2c1Nc1cccc(C(N)=O)c1", "note": "[Example 86, 3-(3-cyano-6-(2-morpholinoethylamino)-1,7-naphthyridin-4-ylamino)benzamide]", "pIC50": "< 5.00"}
{"smiles": "N#Cc1cnc2cnc(NCCN3CCOCC3)cc2c1Nc1ccc(-c2ccccc2)cc1", "note": "[Example 87, 4-(1,1′-biphenyl-4-ylamino)-6-[(2-morpholin-4-ylethyl)amino]-1,7-naphthyridine-3-carbonitrile]", "pIC50": "< 4.40"}
{"smiles": "N#Cc1cnc2cnc(NCCN3CCOCC3)cc2c1Nc1ccc([N+](=O)[O-])cc1", "note": "[Example 88, 6-(2-morpholinoethylamino)-4-(4-nitrophenylamino)-1,7-naphthyridine-3-carbonitrile]", "pIC50": 5.15}
{"smiles": "CN(c1ccc(F)c(Cl)c1)c1c(C#N)cnc2cnc(NCCN3CCOCC3)cc12", "note": "[Example 89, 4-((3-chloro-4-fluorophenyl)(methyl)amino)-6-(2-morpholinoethylamino)-1,7-naphthyridine-3-carbonitrile]", "pIC50": "< 4.40"}
{"smiles": "CCC(C)(C)Nc1cc2c(Nc3ccc(F)c(Cl)c3)c(C#N)cnc2cn1", "note": "[Example 91, 4-(3-chloro-4-fluorophenylamino)-6-(tert-pentylamino)-1,7-naphthyridine-3-carbonitrile]", "pIC50": "< 4.40"}
{"smiles": "N#Cc1cnc2cnc(Nc3ccc(F)c(Cl)c3)cc2c1NC1CCCC1", "note": "[Example 92, 6-(3-chloro-4-fluorophenylamino)-4-(cyclopentylamino)-1,7-naphthyridine-3-carbonitrile]", "pIC50": 5.10}
{"smiles": "N#Cc1cnc2cnc(NC3CCCC3)cc2c1Nc1ccc(F)c(Cl)c1", "note": "[Example 94, 4-(3-Chloro-4-fluoro-phenylamino)-6-cyclopentylamino-[1,7]naphthyridine-3-carbonitrile]", "pIC50": 5.12}
{"smiles": "N#Cc1cnc2cnc(NCc3cccnc3)cc2c1Nc1ccccc1", "note": "[Example 95, 4-Phenylamino-6-[(pyridin-3-ylmethyl)-amino]-[1,7]naphthyridine-3-carbonitrile]", "pIC50": 6.48}
{"target": "T1, human Cot/Tpl2 kinase", "test": "Tpl2/Cot kinase assay, GST-MEK1 phosphorylation detected by ELISA (DELFIA Eu)", "type": "biochemical", "details": "Table 2; additional representative compounds", "method": "as §1, §2"}
{"smiles": "COc1ccc(CNc2cc3c(Nc4ccc(F)c(Cl)c4)c(C#N)cnc3cn2)cc1", "note": "[Example 96, 4-[(3-chloro-4-fluorophenyl)amino]-6-[(4-methoxybenzyl)amino]-1,7-naphthyridine-3-carbonitrile]", "pIC50": 6.70}
{"smiles": "CC(C)c1cccc(Nc2c(C#N)cnc3cnc(F)cc23)c1", "note": "[Example 97, 6-fluoro-4-[(3-isopropylphenyl)amino]-1,7-naphthyridine-3-carbonitrile]", "pIC50": "< 4.40"}
